{"source": "patent US6720139B1", "about": "“Genes identified as required for proliferation in Escherichia coli” (priority 1999, dated 2004)", "molecules": {"B1": {"name": "EcXA006: identified antisense clone, gene pta (nucleic acid)", "DNA": "GCGCATACCCTGCAGCATCGGCCCGATGGAGATCAGGTCGGCAGAACGCTGTACCGCTTTGTAGGTGGTGTTACCGGTGNTCAGATCCGGGAAGATGAACACGGTAGCGCGACCTGCAACCGGAGAGTTCGGCGCTTTGGATTNCGCAACGTCAGCCATTACCGCAGCGTCGTACTGCAGCGGACCGGCGATCATCAGGTCA", "modifications": "E. Coli; misc_feature (1)...(202): n = A,T,C or G", "notes": "identified antisense clone, gene pta"}, "B2": {"name": "EcXA044: identified antisense clone, gene purB (nucleic acid)", "DNA": "TTAATTATTAAAATAGTGTAACGCGATTATGTGGTTATGGGGGTAAACATTAAATAAACCAGCGGGGAGGGGAGGTAAAGTGAAAAAATAAAAAGCGGATAATCTTAATAAGCAGGCCGGACAGCATCGCCATCCGGCACTGATACGAGGTTTATTTCAGCTCATCAACCATCG", "modifications": "E. Coli", "notes": "identified antisense clone, gene purB"}, "B3": {"name": "EcXA046: identified clone corresponding to an intergenic sequence, fimE, fimA (nucleic acid)", "DNA": "TTTGTTGGCTTAATATTCTATTGTTATCTTTATTTATAGATGTTTATATTGCATGAGGTGGTTTTTGGAGAGAAGAATGAGGAAGATGCGTCGAGCCACAGAAACGTTAGCTTTACATATAGCGGAGGTGATGTGAATTTAATTTACAATAGAAATAATTTACATATCAAACAGTTAGATGCTTTTTGTCG", "modifications": "E. Coli"}, "B4": {"name": "EcXA053: identified antisense clone, gene gor (nucleic acid, listed as Escherichia coli)", "DNA 1": "TGGAGAAAACGGGTGATTGATAAAGCAATCATCGTTCTAGGGGCGTTAATTGCGCTGCTGGAACTGATCCCGCTTTCTGCTTCAAGCTTCTGAACTGGATACGGAAACGTAATNAGGGCTAAAGAAGACACTACTCTTAGCCCTTTAACATTTAACGCATTGTCACGAACTCTTCTGCCGCCGTTGGGTGAATGGCGACGGGTATTGGTCGAAATCTTTTTTGGGTGGCCCCATCTTTAACGCCCACCCGCGAAACCCTGCAACATTTCGTC", "DNA 2": "TGGAGAAAACGGGTGATTGATAAAGCAATCATCGTTCTAGGGGCGTTAATTGCGCTGCTGGAACTGATCCGCTTTCTGCTTCAGCTTCTGAACTGATAGCGGAAACGTAATTAAGGGCTAAGAGCACACTACTCTTAGCCCTTTAACATTTAACGCATTGTCACGAACTCTTCTGCCGCCGTTGGGTGAATGGCGACGGTATTGTCGAAGTCTTTTTTGGTTGCCCCCATCTTCAGCGCCACCGCGAAGCCCTGCAACATTTCGTC", "modifications": "E. Coli; misc_feature (1)...(272): n = A,T,C or G", "notes": "identified antisense clone, gene gor"}}, "key": {"[1]": {"test_system": "bacterial strain engineered for expression of an antisense against rplL and rplJ (50S ribosomal subunit proteins)", "assay": "microbe, parasite or virus in culture", "type": "cell-based, E. coli", "method": "A panel of test antibiotics known to act on different pathways is tested side by side with three to four wells being used to evaluate the effect of a test antibiotic on cell growth at each concentration. Equal volumes of test antibiotic and cells are added to the wells of a 384 well microtiter plate and mixed. Cells are prepared as described above using the media selected for assay development supplemented with the antibiotic required to maintain the antisense construct and are diluted 1:100 in identical media immediately prior to addition to the microtiter plate wells. For a control, cells are also added to several wells that contain the solvent used to dissolve the antibiotics but no antibiotic. Cell growth is monitored continuously by incubation at 37° C. in a microtiter plate reader monitoring the OD600 of the wells over an 18-hour period. […] A plot of percent inhibition against log[antibiotic concentration] allows extrapolation of an IC50 value for each antibiotic.\nTwo fold dilution series of the panel of test antibiotics used above are generated in each of these media. Several antibiotics are tested side by side with three to four wells being used to evaluate the effects of an antibiotic on cell growth at each concentration, in each media. Equal volumes of test antibiotic and cells are added to the wells of a 384 well microtiter plate and mixed. Cells are prepared as described above using the media selected for use in the assay supplemented with the antibiotic required to maintain the antisense construct. […] Immediately prior to addition to the microtiter plate wells, the cultures are adjusted to an appropriate OD600 (typically 0.002) by dilution into warm (37° C.) sterile media supplemented with identical concentrations of the inducer and antibiotic used to maintain the antisense construct. […] Cell growth is monitored continuously by incubation at 37° C. in a microtiter plate reader monitoring the OD600 of the wells over an 18-hour period. […]"}, "[2]": {"test_system": "E. coli cells expressing antisense RNA to rplL, rplJ, rplW or to comparison genes (elaD, visC, yohH, atpB/E)", "assay": "Antibiotic sensitivity of cells expressing antisense RNA (Example 9)", "type": "cell-based", "conditions": "for sensitivity to erythromycin: initial experiments", "from_the_text": "The effectiveness of the above cell based assay was validated using constructs expressing antisense RNA to E. coli genes rplL, rplJ, and rplW encoding ribosomal proteins L7/L12, L10 and L23 respectively. These proteins are part of the protein synthesis apparatus of the cell and as such are required for proliferation. These constructs were used to test the effect of antisense expression on cell sensitivity to antibiotics known to bind to the ribosome and thereby inhibit protein synthesis. Constructs expressing antisense RNA to several other genes (elaD, visC, yohH, and aptE/B), the products of which are not involved in protein synthesis were used for comparison.\nFirst expression vectors containing antisense constructs to either rplW or to elaD were introduced into separate E. coli cell populations. Vector introduction is a technique well known to those of ordinary skill in the art. The expression vectors of this example contain IPTG inducible promoters that drive the expression of the antisense RNA in the presence of the inducer. However, those skilled in the art will appreciate that other inducible promoters may also be used. Suitable expression vectors are also well known in the art. The E. coli antisense clones encoding ribosomal proteins L7/L12, L10 and L23 were used to test the effect of antisense expression on cell sensitivity to the antibiotics known to bind to these proteins. […]\nCells were pretreated with the selected concentration of IPTG and then used to test the sensitivity of cell populations to tetracycline, erythromycin and other protein synthesis inhibitors. […] Cells were grown to log phase and then diluted into media alone or media containing IPTG at concentrations which give 20% and 50% growth inhibition as determined by IPTG dose response curves. […] The 96 well plates were incubated at 37° C. and the OD600 was read by a plate reader every 5 minutes for up to 15 hours. For each IPTG concentration and the no IPTG control, tetracycline dose response curves were determined when the control (absence of tetracycline) reached 0.1 OD600."}, "E. coli": {"test_system": "E. coli", "assay": "Inhibition of bacterial proliferation after IPTG induction of antisense clones (Example 1)", "type": "cell-based, Escherichia coli", "conditions": "1 mM IPTG, liquid or solid medium", "method": "To study the effects of transcriptional induction in liquid medium, growth curves were carried out by back diluting cultures 1:200 into fresh media with or without 1 mM IPTG and measuring the OD450 every 30 minutes (min). To study the effects of transcriptional induction on solid medium, 10^2, 10^3, 10^4, 10^5, 10^6, 10^7 and 10^8 fold dilutions of overnight cultures were prepared. Aliquots of from 0.5 to 3 μl of these dilutions were spotted on selective agar plates with or without 1 mM IPTG. After overnight incubation, the plates were compared to assess the sensitivity of the clones to IPTG.\nOf the numerous clones tested, some clones were identified as, a containing sequence that inhibited E. coli growth after IPTG induction. Accordingly, the gene to which the inserted nucleic acid sequence corresponds, or a gene within the operon containing the inserted nucleic acid, may be required for proliferation in E. coli."}}, "note": "Like-named read-outs stand apart in the source and are kept apart here. Positions of bridges follow the written chain, without caps; N, C: chain ends. Non-standard residues stand in square brackets, D forms with d. Residues, ends and D or L forms follow the SMILES beside them. *: point of attachment. Ileψ(thiazoline)Cys = CC[C@H](C)[C@H](N)C1=N[C@H](C(=O)*)CS1; dOrn = NCCC[C@@H](N)C(=O)O", "data": [{"molecule": "CN(C)c1ccc(O)c2c1C[C@H]1C[C@H]3[C@H](N(C)C)C(O)=C(C(N)=O)C(=O)[C@@]3(O)C(O)=C1C2=O", "note": "[Minocycline]", "values": [{"measurement": "IC50", "setting": "[1]; read-out: IC50 (+IPTG)", "result": 0.0034, "unit": "µg/mL"}]}, {"molecule": "CC[C@H]1OC(=O)[C@H](C)[C@@H](O[C@H]2C[C@@](C)(OC)[C@@H](O)[C@H](C)O2)[C@H](C)[C@@H](O[C@@H]2O[C@H](C)C[C@H](N(C)C)[C@H]2O)[C@](C)(O)C[C@@H](C)C(=O)[C@H](C)[C@@H](O)[C@]1(C)O", "note": "[Erythromycin]", "values": [{"measurement": "sensitivity to erythromycin", "setting": "[2]; clones expressing antisense to non-protein synthesis genes elaD, atpB/E and visC", "result": "do not"}, {"measurement": "sensitivity to erythromycin", "setting": "[2]; clones expressing antisense to protein synthesis genes (L7/L12 & L10, L7/L12 alone, L22, L18, rRNA, Elongation Factor G)", "result": "increased sensitivity"}]}, {"molecule": "CC[C@H](C)[C@H](N)C1=N[C@H](C(=O)N[C@@H](CC(C)C)C(=O)N[C@H](CCC(=O)O)C(=O)N[C@H](C(=O)N[C@H]2CCCCNC(=O)[C@H](CC(N)=O)NC(=O)[C@@H](CC(=O)O)NC(=O)[C@H](Cc3cnc[nH]3)NC(=O)[C@@H](Cc3ccccc3)NC(=O)[C@H]([C@@H](C)CC)NC(=O)[C@@H](CCCN)NC2=O)[C@@H](C)CC)CS1", "note": "[Bacitracin] ({Ileψ(thiazoline)Cys}-L[dE]IK[dOrn]I[dF]H[dD]N; lactam 4-C)", "values": [{"measurement": "IC50", "setting": "[1]; read-out: IC50 (+IPTG)", "result": 4680, "unit": "µg/mL"}, {"measurement": "IC50", "setting": "[1]; read-out: IC50 (−IPTG)", "result": 4080, "unit": "µg/mL"}]}, {"molecule": "CCn1cc(C(=O)O)c(=O)c2ccc(C)nc21", "note": "[Nalidixic acid]", "values": [{"measurement": "sensitivity to antibiotics which do not inhibit protein synthesis", "setting": "[2]; clone expressing antisense to rplL and rplJ", "result": "does not show increased sensitivity"}]}, {"molecule": "B1", "values": [{"measurement": "E. coli growth after IPTG induction of antisense expression", "setting": "E. coli", "result": "reduction in cell growth"}]}, {"molecule": "B2", "values": [{"measurement": "E. coli growth after IPTG induction of antisense expression", "setting": "E. coli", "result": "reduction in cell growth"}]}, {"molecule": "B3", "values": [{"measurement": "E. coli growth after IPTG induction of antisense expression", "setting": "E. coli", "result": "reduction in cell growth"}]}, {"molecule": "B4", "values": [{"measurement": "E. coli growth after IPTG induction of antisense expression", "setting": "E. coli", "result": "reduction in cell growth"}]}]}
